The values that follow come from patent publication US9388147B2 (Receptos, Inc., priority 2009, dated 2016).

Like-named read-outs stand apart in the source and are kept apart here.

One series has as its target S1P1/EDG1 (Homo sapiens, UniProt P21453). Kind of series: S1P1 CRE-bla CHOK1 reporter assay, inhibition of Forskolin induced cAMP. The class given is cell-based. In short, it runs like this: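 Read-out is a FRET β-lactamase substrate (2 h, room temperature) after 4 h, 37 °C compound treatment under 2 μM Forskolin in stable S1P1-transfected CRE-bla CHO-K1 cells. Ten-point curves; non-linear regression gives EC50 for inhibition of Forskolin-stimulated cAMP.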
On the technique in general: In a reporter assay the amount or activity of a reporter protein is the signal.

A further series has as its target T1, S1P2 (Homo sapiens, UniProt O95136).
T1 construct: expressed in transfected cells; host or cells: CRE-bla CHOK1
Kind of series: Specificity over other S1P receptors: S1P2 CRE-bla CHOK1 reporter assay. It is filed as cell-based. The note with it: S1P2 CRE-bla CHOK1, without Forskolin; read-out: S1P2 agonist value (EC50). Here is the method:
(§1) Cells were seeded into 384-well black wall/clear bottom plates at 10^4 cells/well/19.5 μl assay media (DMEM-phenol free, 0.5% charcoal/dextran stripped serum, 2 mM glutamine, 0.1 mM NEAA, 1 mM Na-Pyruvate, 25 mM Hepes) and incubated for 18 hrs at 37° C. in 5% CO2. Dose response curves (10-point) were generated in 10 mM Hepes, 0.1% Pluronic F127, in the presence of Forskolin. Cells were treated with 0.5 μl compound in the presence of 2 μM Forskolin for 4 hrs at 37° C. The FRET-based β-lactamase fluorescent substrate (LiveBLAzer™-FRET B/G Loading Kit CC4-AM; Invitrogen) was prepared according to manufacturer's directions, and incubated with cells for 2 hrs at room temperature. Plates were read at Ex:410/Em:458 and Ex:410/Em:522, and the response ratio determined. Data was analyzed by non-linear regression to determine the EC50 for inhibition of Forskolin induced cAMP.
(§2) To assess compound specificity on other S1P receptors the following cell lines were used: S1P2 CRE-bla CHOK1, S1P3-Gα15 NFAT-bla HEK293T (Invitrogen), S1P4-bla TANGO U2OS (Invitrogen), S1P5-bla TANGO U2OS (Invitrogen). The same assay set up for S1P1 was used but without Forskolin. S1P4 and S1P5 assays were performed in FreeStyle Expression medium (Invitrogen). S1P5 cells were incubated for 48 hrs in prior to treatment with compound.

The target in another series is T2, S1P3 (Homo sapiens, UniProt Q99500).
T2 construct: host or cells: NFAT-bla HEK293T
As to the kind of experiment: Specificity over other S1P receptors: S1P3-Gα15 NFAT-bla HEK293T reporter assay. It is filed as cell-based. As to conditions: without Forskolin, read-out: S1P3 agonist value (EC50). The protocol: as §1, §2

Another series addresses T3, S1P4 (Homo sapiens, UniProt O95977).
T3 construct: Tango fusion (own knowledge: protease cleavage site plus GAL4-VP16 transcription factor at the receptor's C-terminus); host or cells: U2OS (Tango -bla)
T3 sequence (O95977 1-384): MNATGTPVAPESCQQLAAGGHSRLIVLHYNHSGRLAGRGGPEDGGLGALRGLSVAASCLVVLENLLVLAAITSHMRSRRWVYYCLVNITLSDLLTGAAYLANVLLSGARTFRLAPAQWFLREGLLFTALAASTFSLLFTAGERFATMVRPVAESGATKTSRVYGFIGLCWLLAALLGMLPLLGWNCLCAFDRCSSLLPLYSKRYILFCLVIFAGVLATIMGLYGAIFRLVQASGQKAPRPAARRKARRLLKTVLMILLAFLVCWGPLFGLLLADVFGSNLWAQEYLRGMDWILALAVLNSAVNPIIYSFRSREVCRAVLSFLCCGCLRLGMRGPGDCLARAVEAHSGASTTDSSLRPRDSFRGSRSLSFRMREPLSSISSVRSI
Kind of series: Specificity over other S1P receptors: S1P4-bla TANGO U2OS assay. It is filed as cell-based. The note with it: read-out: S1P4 agonist value (EC50). The protocol: as §1, §2

Another series addresses T4, S1P5 (Homo sapiens, UniProt Q9H228).
T4 construct: Tango fusion (own knowledge: protease cleavage site plus GAL4-VP16 transcription factor at the receptor's C-terminus); host or cells: U2OS (Tango -bla)
As to the kind of experiment: Specificity over other S1P receptors: S1P5-bla TANGO U2OS assay. It is filed as cell-based. As to conditions: read-out: S1P5 agonist value (EC50). Here is the method: as §1, §2

Series [1] in a line: Evaluation of therapeutic index in rats: 5 or 14 day toxicology study, lung to body weight ratio. The class given is in vivo, Sprague-Dawley rat. As to conditions: for Dose Resulting in 10% increase in lung weight: rats, oral, 5 or 14 consecutive days, interpolated from dose versus lung to body weight; for TI 5 days: 5 day toxicology study in rats. Here is the method:
All studies were conducted in non-fasted male and female Sprague-Dawely rats (Simonsen Laboratories). Rats were housed in an AAALAC accredited facility and the research was approved by the facilities Institutional Animal Care and Use Committee (IACUC). The animals were acclimated to the laboratory for at least 5 days prior to initiation of experiments.
(§3) The compounds listed in Table 6 were formulated as suspensions in a vehicle consisting of 0.5% carboxymethyl cellulose (Acros Organics) in purified water (pH adjusted to ˜2.2 with hydrochloric acid). The same formulation was used in the rat lymphopenia and toxicology studies described below. The concentration of each compound in suspension was verified to be within ±10% of the target concentration by HPLC-UV.
In the toxicology studies, three male and three female rats per group were assigned to dosing groups using body weight based randomization. A control group in each study received vehicle. All animals were dosed orally by gavage on 5 or 14-consecutive days at a dose volume of 5 mL/kg/day. The animals were observed daily for any manifestations of adverse effect. Twenty-four hours after the final study dose, the rats were anesthetized with isoflurane and a terminal blood sample was taken by intra-cardiac puncture for hematology and clinical chemistry evaluation (IDEXX Laboratories, Sacramento, Calif.). The lungs with trachea were collected, weighed, and then prepared for histology by perfusion with 10% neutral buffered formalin via the trachea. The internally fixed lungs were then preserved in 10% neutral buffered formalin and submitted for histological examination (IDEXX).
The dose of each compound resulting in a 10% increase in the lung to terminal body weight ratio was estimated for each compound by linear interpolation. The therapeutic index was estimated as the ratio of the dose producing 10% lung weight increase to the dose producing 50% T-Cell depletion.
(§4) The dose producing a 10% increase in lung to body weight ratio was interpolated from a plot of dose versus lung to body weight. The lymphopenia response was measured 24 hours following the final dose of a 3-5 day multiple dose regimen.

The test system of a further series is peripheral T-cell counts. As to the kind of experiment: Lymphopenia in rats, 3-5 day multiple dose regimen. The class given is in vivo, rat. As to conditions: female rats, oral, 24 h after final dose of a 3-5 day multiple dose regimen. The protocol:
In rats: Female rats (Simonsen Laboratories, Gilroy Calif.) were housed in an ALAAC accredited facility and the research was approved by the facilities Institutional Animal Care and Use Committee (IACUC). The animals were acclimated to the laboratory for at least 5 days prior to initiation of experiments. Rats (n=3/compound/time-point) were dosed by oral gavage with 1 mg/kg compound formulated in a vehicle consisting of 5% DMS0/5% Tween 20 and 90% 0.1N HCL. Control rats were dosed PO with the vehicle. Whole blood was collected from isoflurane anesthetized rats via the retro-orbital sinus and terminal samples were collected by cardiac puncture into EDTA. Whole blood was incubated with mouse anti-rat CD32 (BD #550271), PE-mouse anti-rat CD45R/B220 (BD #554881), PECy5-mouse anti-rat CD4 (BD #554839), and APC-mouse anti-rat CD8a (eBioscience #17-0084) for 30 minutes on ice. Red blood cells were lysed using BD Pharm Lyse Lysing buffer (#555899) and white blood cells were analyzed with a BD FACSArray. Lymphopenia was expressed as the % of white blood cells that were CD4 or CD8 positive T cells. The overall lymphopenia response over 24 h was estimated by calculating the area under the effect curve (AUEC) using the linear trapezoidal rule.
as §3
Prior to the conduct of toxicology studies, the effect of three to five daily doses of each compound on peripheral T-cell counts of female rats was determined (see lymphopenia measurements in rats above). In these lymphopenia studies, blood samples were collected onto EDTA at intervals after the final study dose. The collection times were not identical for each study, however, all studies included a sample collected 24 hours after the final dose. The lymphopenia data was used as a biomarker to select equally pharmacologically active doses for the subsequent toxicology study. […] The high dose in the toxicology study represented a ≧20-fold increment over the low dose.
as §4

Where [2] appears, read: S1P1 CRE-bla CHOK1, with Forskolin, read-out: S1P1 agonist value (EC50).
The mark [3] stands for this setting: agonist activity range, S1P1 CRE-bla CHOK1, 2 μM Forskolin, read-out: S1P1 ACTIVITY
The mark [4] stands for this setting: therapeutic index: dose producing 10% lung weight increase / dose producing 50% T-cell depletion.

Chain of S1P1/EDG1 (P21453 whole entry): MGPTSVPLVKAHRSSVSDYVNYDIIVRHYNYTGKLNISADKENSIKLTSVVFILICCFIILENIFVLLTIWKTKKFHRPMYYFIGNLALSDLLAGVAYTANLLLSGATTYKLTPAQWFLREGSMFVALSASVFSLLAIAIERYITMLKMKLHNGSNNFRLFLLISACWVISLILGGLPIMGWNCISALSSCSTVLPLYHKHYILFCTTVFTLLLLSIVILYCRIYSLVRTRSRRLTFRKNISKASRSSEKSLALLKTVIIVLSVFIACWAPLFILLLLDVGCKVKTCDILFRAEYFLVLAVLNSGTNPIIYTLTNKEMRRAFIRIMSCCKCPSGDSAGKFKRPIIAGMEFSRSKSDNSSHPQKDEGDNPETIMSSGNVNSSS
T4 sequence (Q9H228 whole entry, the tested form may be a part): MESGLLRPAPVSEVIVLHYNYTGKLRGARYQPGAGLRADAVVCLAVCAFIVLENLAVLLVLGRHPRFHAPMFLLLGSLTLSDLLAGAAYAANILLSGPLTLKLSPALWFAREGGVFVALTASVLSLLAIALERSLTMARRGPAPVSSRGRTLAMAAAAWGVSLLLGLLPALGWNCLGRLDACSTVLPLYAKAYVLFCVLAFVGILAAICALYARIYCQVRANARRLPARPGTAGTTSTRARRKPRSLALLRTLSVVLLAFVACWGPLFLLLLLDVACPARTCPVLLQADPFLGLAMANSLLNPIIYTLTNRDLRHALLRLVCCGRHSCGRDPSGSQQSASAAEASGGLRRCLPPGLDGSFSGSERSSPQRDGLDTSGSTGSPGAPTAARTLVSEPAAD
T2 sequence (Q99500 whole entry): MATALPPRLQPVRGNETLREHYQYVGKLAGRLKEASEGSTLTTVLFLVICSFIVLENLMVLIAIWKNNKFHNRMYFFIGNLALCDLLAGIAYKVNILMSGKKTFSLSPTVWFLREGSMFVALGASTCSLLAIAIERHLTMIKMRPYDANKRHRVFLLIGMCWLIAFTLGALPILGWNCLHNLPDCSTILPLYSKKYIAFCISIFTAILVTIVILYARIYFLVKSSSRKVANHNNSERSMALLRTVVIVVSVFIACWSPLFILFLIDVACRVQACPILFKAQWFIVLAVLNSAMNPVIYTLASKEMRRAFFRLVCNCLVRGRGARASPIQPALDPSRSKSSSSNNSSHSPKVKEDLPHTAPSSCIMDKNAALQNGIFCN
T1 sequence (O95136 whole entry, species assumed): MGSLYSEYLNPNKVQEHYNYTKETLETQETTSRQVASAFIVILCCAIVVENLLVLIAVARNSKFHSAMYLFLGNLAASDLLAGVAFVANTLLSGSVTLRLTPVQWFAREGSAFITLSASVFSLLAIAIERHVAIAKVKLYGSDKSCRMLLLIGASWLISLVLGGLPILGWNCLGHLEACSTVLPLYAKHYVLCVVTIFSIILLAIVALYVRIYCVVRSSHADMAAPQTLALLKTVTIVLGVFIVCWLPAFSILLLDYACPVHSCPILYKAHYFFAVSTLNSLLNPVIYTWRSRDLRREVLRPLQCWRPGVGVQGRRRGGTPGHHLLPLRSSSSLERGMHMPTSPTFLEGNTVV

Take `CC(C)Oc1ccc(-c2nc(-c3cccc4c3CC[C@H]4NC(=O)N3CC(O)C3)no2)cc1C#N` [Compound 234, (R)-N-(4-(5-(3 cyano-4-isopropoxyphenyl)-1,2,4-oxadiazol-3-yl)-2,3-dihydro-1H-inden-1-yl)-3-hydroxyazetidine-1-carboxamide]: the EC50 at S1P1/EDG1 (setting [2]) is 0.1 nM; on S1P1/EDG1 (setting [3]), 0.05 to 0.5 nM; at S1P2 it was above 10000 nM; at S1P3 it was above 10000 nM; on S1P4, 739 nM; on S1P5 it was 76.1 nM. For the same compound, in series [1], the “Dose Resulting in 10% increase in lung weight” value (“Dose Resulting in 10% increase” below) is recorded as 21.3 mg/kg. Besides, the “TI 5 days” value in series [1] (setting [4]) is 24. Further, in the series with peripheral T-cell counts, the “Dose Producing 50% lymphopenia” value is 0.90 mg/kg.

Regarding `CC(C)Oc1ccc(-c2nc(-c3cccc4c3CC[C@@H]4NC(=O)N3CC(O)C3)no2)cc1C#N` [Compound 235], the EC50 on S1P1/EDG1 (setting [2]) was 0.1 nM; on S1P1/EDG1 (setting [3]) it was 0.05 to 0.5 nM; at S1P2 it was above 10000 nM; on S1P3, above 10000 nM; on S1P4, above 10000 nM; on S1P5, 39.8 nM. The “Dose Resulting in 10% increase” value in series [1] came out at 11.3 mg/kg. In addition, the “TI 5 days” value in series [1] (setting [4]) is given as 6. Besides, the “Dose Producing 50% lymphopenia” value in the series on peripheral T-cell counts stood at 2.00 mg/kg.

As to `COCCS(=O)(=O)N[C@@H]1CCc2c(-c3noc(-c4ccc(OC(C)C)c(C#N)c4)n3)cccc21` [Compound 163, (R)-N-(4-(5-(3 cyano-4-isopropoxyphenyl)-1,2,4-oxadiazol-3-yl)-2,3-dihydro-1H-inden-1-yl)-2-methoxyethanesulfonamide], the EC50 on S1P1/EDG1 (setting [2]) is 0.09 nM; at S1P1/EDG1 (setting [3]), 0.05 to 0.5 nM; at S1P2 it was above 10000 nM; at S1P3 it was above 10000 nM; at S1P4, above 10000 nM; on S1P5 it was 50 nM. Besides, in series [1], the “Dose Resulting in 10% increase” value is given as 2.1 mg/kg. The “TI 14 days” value in series [1] (therapeutic index: dose producing 10% lung weight increase / dose producing 50% T-cell depletion, 14 day toxicology study in rats) was 30. Moreover, the “Dose Producing 50% lymphopenia” value with peripheral T-cell counts is 0.07 mg/kg.

With `CC(C)Oc1ccc(-c2nc(-c3cccc4c3CC[C@H]4NS(=O)(=O)CCO)no2)cc1C#N` [Compound 186, (R)-N-(4-(5-(3 cyano-4-isopropoxyphenyl)-1,2,4-oxadiazol-3-yl)-2,3-dihydro-1H-inden-1-yl)-2-hydroxyethanesulfonamide], the EC50 on S1P1/EDG1 (setting [2]) is 0.05 nM; at S1P1/EDG1 (setting [3]), 0.05 to 0.5 nM; on S1P2, 1570 nM; at S1P3, above 10000 nM; at S1P4 it was 1210 nM; at S1P5, 32.3 nM. In addition, in series [1], the “Dose Resulting in 10% increase” value turned out to be 1.1 mg/kg. In addition, the “TI 5 days” value in series [1] (setting [4]) stood at 16. The “Dose Producing 50% lymphopenia” value in the series on peripheral T-cell counts came to 0.07 mg/kg.

As for `CC(C)Oc1ccc(-c2nc(-c3cccc4c3CC[C@@H]4NS(=O)(=O)CCO)no2)cc1C#N` [Compound 187, (S)-N-(4-(5-(3-cyano-4-isopropoxyphenyl)-1,2,4-oxadiazol-3-yl)-2,3-dihydro-1H-inden-1-yl)-2-hydroxyethanesulfonamide], the EC50 on S1P1/EDG1 (setting [2]) is 0.1 nM; at S1P1/EDG1 (setting [3]), 0.05 to 0.5 nM; on S1P2, above 10000 nM; at S1P3, above 10000 nM; at S1P4 it was above 10000 nM; at S1P5, 57.1 nM. Moreover, in series [1], the “Dose Resulting in 10% increase” value came to 5.0 mg/kg. In series [1] (setting [4]), the “TI 5 days” value came out at 10. Also, the “Dose Producing 50% lymphopenia” value in the series with peripheral T-cell counts is 0.50 mg/kg.

`COCCS(=O)(=O)N[C@H]1CCc2c(-c3noc(-c4ccc(OC(C)C)c(C#N)c4)n3)cccc21` [Compound 164, (S)-N-(4-(5-(3-cyano-4-isopropoxyphenyl)-1,2,4-oxadiazol-3-yl)-2,3-dihydro-1H-inden-1-yl)-2-methoxyethanesulfonamide]: the EC50 was 0.36 nM at S1P1/EDG1 (setting [2]); 0.05 to 0.5 nM on S1P1/EDG1 (setting [3]); above 10000 nM on S1P2; above 10000 nM at S1P3; above 10000 nM at S1P4; 174 nM on S1P5. In addition, the “Dose Resulting in 10% increase” value in series [1] is 5.0 mg/kg. For the same compound, the “TI 5 days” value in series [1] (setting [4]) came to 20. Also, the “Dose Producing 50% lymphopenia” value with peripheral T-cell counts worked out at 0.25 mg/kg.
